Measured values from ChEMBL document CHEMBL5154820 (Eur J Med Chem, 2022).
In brackets after ≈: the same amount, converted by molar mass.

Key:
[1] = test system: HeLa; experiment: Antiproliferation activity against human HeLa cells assessed as reduction in cell growth measured after 48 to 72 hrs by CCK-8 assay; assay type: functional, cell-based
[2] = test system: SiHa; experiment: Antiproliferation activity against human SiHa cells assessed as reduction in cell growth measured after 48 to 72 hrs by CCK-8 assay; assay type: functional, cell-based
[3] = Antiproliferation activity against human MS751 cells assessed as reduction in cell growth measured after 48 to 72 hrs by CCK-8 assay; assay type: functional, cell-based
[4] = test system: HeLa; experiment: Induction of cell cycle arrest in human HeLa cells assessed as 2N cells at 1.5 nM measured after 24 hrs by propidium iodide staining based flow cytometric analysis analysis ( Rvb = 41.7%); assay type: functional
[5] = test system: HeLa; experiment: Induction of cell cycle arrest in human HeLa cells assessed as 2N cells at 6 nM measured after 24 hrs by propidium iodide staining based flow cytometric analysis analysis ( Rvb = 41.7%); assay type: functional
[6] = test system: HeLa; experiment: Induction of cell cycle arrest in human HeLa cells assessed as 4N cells at 1.5 nM measured after 24 hrs by propidium iodide staining based flow cytometric analysis analysis ( Rvb = 17.1%); assay type: functional
[7] = test system: HeLa; experiment: Induction of cell cycle arrest in human HeLa cells assessed as >4N cells at 1.5 nM measured after 24 hrs by propidium iodide staining based flow cytometric analysis analysis relative to control; assay type: functional
[8] = test system: HeLa; experiment: Induction of cell cycle arrest in human HeLa cells assessed as >4N cells at 3 nM measured after 24 hrs by propidium iodide staining based flow cytometric analysis analysis relative to control; assay type: functional
[9] = test system: HeLa; experiment: Induction of cell cycle arrest in human HeLa cells assessed as >4N cells at 6 nM measured after 24 hrs by propidium iodide staining based flow cytometric analysis analysis relative to control; assay type: functional
[10] = test system: HeLa; experiment: Induction of apoptosis in human HeLa cells assessed as early apoptotic cells at 3 nM measured after 24 hrs by Annexin V-FITC/7-AAD staining based flow cytometric analysis (reference value: 18.8%); assay type: functional
[11] = test system: HeLa; experiment: Inhibition of colony formation in human HeLa cells at 6 nM and treated for every 48 hrs with fresh medium measured after 14 days by crystal violet staining method; assay type: functional; design: scale not given: the % may be the effect or the level left; details: time 14 day
[12] = test system: HeLa; experiment: Antimigratory activity against human HeLa cells at 3 nM measured after 24 hrs by scratch wound healing based fluorescence inverted microscopic analysis; assay type: functional
[13] = test system: HeLa; experiment: Antiproliferative activity against human HeLa cells assessed as reduction in cell growth measured after 48 to 72 hrs by CCK-8 assay; assay type: functional, cell-based
[14] = Antiproliferative activity against human HeLa/DDP cells assessed as reduction in cell growth measured after 48 to 72 hrs by CCK-8 assay; assay type: functional, cell-based
[15] = Antiproliferative activity against human SiHa/DDP cells assessed as reduction in cell growth measured after 48 to 72 hrs by CCK-8 assay; assay type: functional, cell-based, SiHa/cDDP
[16] = test system: SiHa; experiment: Antiproliferative activity against human SiHa cells assessed as reduction in cell growth measured after 48 to 72 hrs by CCK-8 assay; assay type: functional, cell-based
[17] = Aqueous solubility of compound at pH 7.0 phosphate buffer incubated overnight by HPLC analysis analysis; assay type: physicochemical
[18] = Aqueous solubility of compound at pH 7.4 in phosphate buffer incubated overnight by HPLC analysis; assay type: physicochemical
[19] = Aqueous solubility of compound at pH 2.0 in phosphate buffer incubated overnight by HPLC analysis; assay type: physicochemical
[20] = Octanol-water partition coefficient, logP of the compound incubated overnight by HPLC analysis; assay type: physicochemical
[21] = Cytotoxicity against HK-2 cells assessed as reduction in cell growth measured after 24 hrs by microplate reader analysis; assay type: toxicity, cell-based; details: human
[22] = molecular target: Tubulin (Sus scrofa, UniProt P02554+P02550); experiment: Inhibition of pig brain tubulin polymerization by spectrophotometeric analysis; design: species or system Sus scrofa domesticus
[23] = molecular target: Tubulin (Homo sapiens) (UniProt P68371+Q9H4B7+P0DPH7+P68366+Q13509+Q71U36+P04350+Q3ZCM7+P07437+P68363+Q9BQE3+Q6PEY2+Q13885+Q9BVA1+Q9BUF5); experiment: Induction of microtubule disruption in human HeLa cells assessed as loss of formation of cell membrane rounding at 0.1 to 0.2 uM measured after 24 hrs by DAPI staining based laser scanning confocal microscopic analysis; details: dose 0.1-0.2 µM, DDE = dose-dependent effect
[24] = test system: HeLa; experiment: Induction of cell cycle arrest in human HeLa cells assessed as < 2N cells at 0.1 uM measured after 24 hrs by propidium iodide staining based flow cytometric analysis analysis ( Rvb = 7.07%); assay type: functional
[25] = test system: HeLa; experiment: Induction of apoptosis in human HeLa cells assessed as viable cells at 0.2 uM measured after 24 hrs by Annexin V-FITC/7-AAD staining based flow cytometric analysis (reference value: 70.1%); assay type: functional; details: read-out: Activity
[26] = test system: HeLa; experiment: Induction of apoptosis in human HeLa cells assessed as necrotic cells at 0.2 uM measured after 24 hrs by Annexin V-FITC/7-AAD staining based flow cytometric analysis (reference value: 0.56%); assay type: functional
[27] = test system: HeLa; experiment: Inhibition of colony formation in human HeLa cells at 20 nM and treated for every 48 hrs with fresh medium measured after 14 days by crystal violet staining method ( Rvb = 67.3%); assay type: functional; design: scale not given: the % may be the effect or the level left; details: time 14 day
[28] = test system: HeLa; experiment: Antimigratory activity against human HeLa cells at 0.1 uM measured after 24 hrs by scratch wound healing based fluorescence inverted microscopic analysis; assay type: functional
[29] = test system: HeLa; experiment: Antimigratory activity against human HeLa cells at 0.2 uM measured after 24 hrs by scratch wound healing based fluorescence inverted microscopic analysis; assay type: functional
[30] = Cmax in C57 nude mouse at 30 mg/kg, ip measured at 0.083 to 24 hrs by LC/MS/MS analysis; assay type: ADME, organism-based; design: dose 30 mg/kg, time 0.083-24 hrs, route ip; details: in vivo
[31] = MRT in C57 nude mouse at 30 mg/kg, ip measured at 0.083 to 24 hrs by LC/MS/MS analysis; assay type: ADME, organism-based; details: in vivo, time 0.083-24 hrs
[32] = Acute toxicity in ICR mouse assessed as median lethal dose administered intraperitoneally upto 14 days; details: in vivo, route ip, time < 14 day
[33] = test system: HeLa; experiment: Antitumor activity against human HeLa cells xenografted in BABL/c mouse assessed as tumor growth inhibition at 30 mg/kg, ip administered daily for 21 days relative to control; assay type: functional; details: 504 h, time 21 day, read-out: TGI
[34] = test system: HeLa; experiment: Antitumor activity against human HeLa cells xenografted in BABL/ mouse assessed as tumor growth inhibition at 60 mg/kg, ip administered daily for 21 days relative to control; assay type: functional; details: 504 h, time 21 day, read-out: TGI
[35] = test system: HeLa; experiment: Antitumor activity against human HeLa cells xenografted in BABL/c mouse assessed as tumor growth inhibition at 30 mg/kg, ip administered daily for 21 days followed by addition of 3 mg/kg DDP for every 2 days relative to control; assay type: functional; details: 504 h, time 21 day, read-out: TGI
[36] = test system: HeLa; experiment: Antitumour activity against human HeLa cells xenografted in BABL/c mouse assessed as reduction in tumor weight at 30 mg/kg, ip administered daily for 21 days followed by addition of 3 mg/kg DDP for every 2 days ( Rvb = 3.36 g); assay type: functional; details: time 21 day, 504 h
[37] = Nephrotoxicity in BABL/c mouse assessed as increased urea nitrogen level at 60 mg/kg, ip administered daily for 21 days relative to vehicle; assay type: toxicity, organism-based; details: in vivo, 504 h, time 21 day

Question: For `COc1ccc(/C=C\c2cc(OC)c(OC)c(OC)c2)cc1O` [COMBRETASTATIN A4], which IC50 [1] is on record?
Answer: 4.2 nM

Question: What about the IC50 [2] of the same molecule?
Answer: 29 nM

Question: What about the IC50 [3] of the same molecule?
Answer: 8 nM

Question: What about the Activity [4] of the same molecule?
Answer: 43.1%

Question: And the Activity [5]?
Answer: 25.9%

Question: What about the Activity [6] of the same molecule?
Answer: 22.5%

Question: What about the Activity [7] of the same molecule?
Answer: 17.9%

Question: And the Activity [8]?
Answer: 17%

Question: What about the Activity [9] of the same molecule?
Answer: 6.35%

Question: And the Activity [10]?
Answer: 43.8%

Question: And the Activity [11]?
Answer: 100%

Question: And the Activity [12]?
Answer: 57%

Question: And the IC50 [13]?
Answer: 4.2 nM

Question: And the IC50 [14]?
Answer: 10.3 µM

Question: And the IC50 [15]?
Answer: 14.4 µM

Question: What about the IC50 [16] of the same molecule?
Answer: 29 nM

Question: And the solubility [17]?
Answer: 9.85 µg/mL (≈ 31.1 µM)

Question: And the solubility [18]?
Answer: 4.34 µg/mL (≈ 13.7 µM)

Question: And the solubility [19]?
Answer: 3.23 µg/mL (≈ 10.2 µM)

Question: And the logP [20]?
Answer: 2.04

Question: And the IC50 at 24 h [21]?
Answer: 116 µM

Question: With `CCOc1ccc(-c2cncnc2-c2cc(OC)c(OC)c(OC)c2)cc1Cl` as the molecule, how does the IC50 [1] read?
Answer: 90 nM

Question: And the IC50 [2]?
Answer: 150 nM

Question: What about the IC50 [3] of the same molecule?
Answer: 110 nM

Question: And the IC50 [22]?
Answer: 4.6 µM

Question: What about the Activity [23] of the same molecule?
Answer: Dde

Question: What about the Activity [24] of the same molecule?
Answer: 7.04%

Question: And the viability at 0.2 µM [25]?
Answer: 26.4%

Question: And the Activity [26]?
Answer: 0.52%

Question: What about the Activity [27] of the same molecule?
Answer: 51.5%

Question: What about the Activity [28] of the same molecule?
Answer: 3%

Question: What about the Activity [29] of the same molecule?
Answer: 40%

Question: And the IC50 [13]?
Answer: 90 nM

Question: And the IC50 [14]?
Answer: 7.21 µM

Question: And the IC50 [15]?
Answer: 6.28 µM

Question: What about the IC50 [16] of the same molecule?
Answer: 150 nM

Question: And the solubility [17]?
Answer: 8.12 µg/mL (≈ 20.3 µM)

Question: And the solubility [18]?
Answer: 17.1 µg/mL (≈ 42.8 µM)

Question: And the solubility [19]?
Answer: 31.7 µg/mL (≈ 79 µM)

Question: And the logP [20]?
Answer: 2.36

Question: What about the IC50 at 24 h [21] of the same molecule?
Answer: 188 µM

Question: And the Cmax [30]?
Answer: 6220 ng/mL

Question: And the MRT [31]?
Answer: 1.77 h

Question: What about the LD50 at 336 h [32] of the same molecule?
Answer: 1000 mg/kg

Question: And the inhibition in vivo at 30 mg/kg [33]?
Answer: 35%

Question: And the inhibition in vivo at 60 mg/kg [34]?
Answer: 58%

Question: What about the inhibition in vivo at 30 mg/kg [35] of the same molecule?
Answer: 73%

Question: And the Activity [36]?
Answer: 2.18 g

Question: And the Activity [37]?
Answer: 1.3%
